{"source": "patent US7138361B2", "about": "“Herbicidal heterocycles” (E. I. du Pont de Nemours and Company, priority 2000, dated 2006)", "assay_type_in_all_cases": "in vivo", "key": {"[1]": {"system": "Surinam grass (Brachiaria decumbens)", "assay": "Test B postemergence", "conditions": "13 to 15 days", "how_it_was_run": "(§1)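 Greenhouse test: chemicals are formulated in a surfactant-containing non-phytotoxic solvent and applied either preemergence to planted seeds or postemergence to plants 2 to 18 cm tall. Response is rated visually versus controls after 13 to 15 days, 0 meaning no effect and 100 complete control.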"}, "[2]": {"system": "barnyardgrass (Echinochloa crus-galli)", "assay": "Test B postemergence", "conditions": "13 to 15 days", "how_it_was_run": "as §1"}, "[3]": {"system": "blackgrass (Alopecurus myosuroides)", "assay": "Test B postemergence", "conditions": "13 to 15 days", "how_it_was_run": "as §1"}, "[4]": {"system": "cocklebur (Xanthium strumarium)", "assay": "Test B postemergence", "conditions": "13 to 15 days", "how_it_was_run": "as §1"}, "[5]": {"system": "corn (Zea mays)", "assay": "Test B postemergence", "conditions": "13 to 15 days", "how_it_was_run": "as §1"}, "[6]": {"system": "crabgrass (Digitaria sanguinalis)", "assay": "Test B postemergence", "conditions": "13 to 15 days", "how_it_was_run": "as §1"}, "[7]": {"system": "giant foxtail (Setaria faberii)", "assay": "Test B postemergence", "conditions": "13 to 15 days", "how_it_was_run": "as §1"}, "[8]": {"system": "lambsquarters (Chenopodium album)", "assay": "Test B postemergence", "conditions": "13 to 15 days", "how_it_was_run": "as §1"}, "[9]": {"system": "morning glory (Ipomoea hederacea)", "assay": "Test B postemergence", "conditions": "13 to 15 days", "how_it_was_run": "as §1"}, "[10]": {"system": "pigweed (Amaranthus retroflexus)", "assay": "Test B postemergence", "conditions": "13 to 15 days", "how_it_was_run": "as §1"}, "[11]": {"system": "velvetleaf (Abutilon theophrasti)", "assay": "Test B postemergence", "conditions": "13 to 15 days", "how_it_was_run": "as §1"}, "[12]": {"system": "wheat (Triticum aestivum)", "assay": "Test B postemergence", "conditions": "13 to 15 days", "how_it_was_run": "as §1"}, "[13]": {"system": "wild oat (Avena fatua)", "assay": "Test B postemergence", "conditions": "13 to 15 days", "how_it_was_run": "as §1"}, "[14]": {"system": "Surinam grass (Brachiaria decumbens)", "assay": "Test B preemergence", "how_it_was_run": "as §1"}, "[15]": {"system": "barnyardgrass (Echinochloa crus-galli)", "assay": "Test B preemergence", "how_it_was_run": "as §1"}, "[16]": {"system": "cocklebur (Xanthium strumarium)", "assay": "Test B preemergence", "how_it_was_run": "as §1"}, "[17]": {"system": "corn (Zea mays)", "assay": "Test B preemergence", "how_it_was_run": "as §1"}, "[18]": {"system": "crabgrass (Digitaria sanguinalis)", "assay": "Test B preemergence", "how_it_was_run": "as §1"}, "[19]": {"system": "giant foxtail (Setaria faberii)", "assay": "Test B preemergence", "how_it_was_run": "as §1"}, "[20]": {"system": "morning glory (Ipomoea hederacea)", "assay": "Test B preemergence", "how_it_was_run": "as §1"}, "[21]": {"system": "pigweed (Amaranthus retroflexus)", "assay": "Test B preemergence", "how_it_was_run": "as §1"}, "[22]": {"system": "rice (Oryza saliva)", "assay": "Test B preemergence", "how_it_was_run": "as §1"}, "[23]": {"system": "velvetleaf (Abutilon theophrasti)", "assay": "Test B preemergence", "how_it_was_run": "as §1"}, "[24]": {"system": "barnyardgrass (Echinochloa crus-galli)", "assay": "Test B flooded paddy test", "conditions": "Rate 1000 g/ha, scale of 0 to 100 where 0 is no effect and 100 is complete control, visually evaluated after 13 to 15 days", "method": "(§2) At the same time, plants selected from these crop and weed species and also blackgrass (Alopecurus myosuroides), wheat (Triticum aestivum) and wild oat (Avena fatua) were treated with postemergence applications of test chemicals formulated in the same manner. Plants ranged in height from 2 to 18 cm (1- to 4-leaf stage) for postemergence treatments. Plant species in the flooded paddy test consisted of rice (Oryza saliva), smallflower flatsedge (Cyperus difformis), duck salad (Heteranthera limosa) and barnyardgrass (Echinochloa crus-galli) grown to the 2-leaf stage for testing. Treated plants and controls were maintained in a greenhouse for 13 to 15 days, after which time all species were compared to controls and visually evaluated. Plant response ratings, summarized in Table B, are based on a scale of 0 to 100 where 0 is no effect and 100 is complete control. A dash (-) response means no test result."}, "[25]": {"system": "duck salad (Heteranthera limosa)", "assay": "Test B flooded paddy test", "conditions": "Rate 1000 g/ha, scale of 0 to 100 where 0 is no effect and 100 is complete control, visually evaluated after 13 to 15 days", "method": "as §2"}, "[26]": {"system": "rice (Oryza saliva)", "assay": "Test B flooded paddy test", "conditions": "Rate 1000 g/ha, scale of 0 to 100 where 0 is no effect and 100 is complete control, visually evaluated after 13 to 15 days", "method": "as §2"}, "[27]": {"system": "smallflower flatsedge (Cyperus difformis)", "assay": "Test B flooded paddy test", "conditions": "Rate 1000 g/ha, scale of 0 to 100 where 0 is no effect and 100 is complete control, visually evaluated after 13 to 15 days", "method": "as §2"}, "[28]": {"conditions": "Rate 125 g/ha, scale 0 (no effect) to 100 (complete control)"}, "[29]": {"conditions": "Rate 500 g/ha, scale 0 to 100, 0 is no effect, 100 is complete control"}, "[30]": {"conditions": "Preemergence, Rate 500 g/ha, scale 0 to 100, 0 no effect, 100 complete control"}, "[31]": {"conditions": "preemergence, Rate 125 g/ha, scale of 0 to 100 where 0 is no effect and 100 is complete control, 13 to 15 days"}}}
{"compound": "CCOc1ccn(C2CCN(c3cccc(C(F)(F)F)c3)C2=O)n1", "note": "(centres unmarked) [Compound 61]", "values": [{"measurement": "Plant response rating, Surinam grass", "setting": "[1]; [28]", "value": 0}, {"measurement": "Plant response rating, Surinam grass", "setting": "[1]; [29]", "value": 0}, {"measurement": "Plant response rating, Barnyardgrass", "setting": "[2]; [28]", "value": 0}, {"measurement": "Plant response rating, Barnyardgrass", "setting": "[2]; [29]", "value": 0}, {"measurement": "Plant response rating, Blackgrass", "setting": "[3]; [28]", "value": 0}, {"measurement": "Plant response rating, Blackgrass", "setting": "[3]; [29]", "value": 0}, {"measurement": "Plant response rating, Cocklebur", "setting": "[4]; [28]", "value": 0}, {"measurement": "Plant response rating, Cocklebur", "setting": "[4]; [29]", "value": 0}, {"measurement": "Plant response rating, Corn", "setting": "[5]; [28]", "value": 0}, {"measurement": "Plant response rating, Corn", "setting": "[5]; [29]", "value": 0}, {"measurement": "Plant response rating, Crabgrass", "setting": "[6]; [28]", "value": 0}, {"measurement": "Plant response rating, Crabgrass", "setting": "[6]; [29]", "value": 0}, {"measurement": "Plant response rating, Foxtail, Giant", "setting": "[7]; [28]", "value": 0}, {"measurement": "Plant response rating, Foxtail, Giant", "setting": "[7]; [29]", "value": 0}, {"measurement": "Plant response rating, Lambsquarters", "setting": "[8]; [28]", "value": 0}, {"measurement": "Plant response rating, Lambsquarters", "setting": "[8]; [29]", "value": 0}, {"measurement": "Plant response rating, Morningglory", "setting": "[9]; [28]", "value": 0}, {"measurement": "Plant response rating, Morningglory", "setting": "[9]; [29]", "value": 0}, {"measurement": "Plant response rating, Pigweed", "setting": "[10]; [28]", "value": 0}, {"measurement": "Plant response rating, Pigweed", "setting": "[10]; [29]", "value": 0}, {"measurement": "Plant response rating, Velvetleaf", "setting": "[11]; [28]", "value": 0}, {"measurement": "Plant response rating, Velvetleaf", "setting": "[11]; [29]", "value": 0}, {"measurement": "Plant response rating, Wheat", "setting": "[12]; [28]", "value": 0}, {"measurement": "Plant response rating, Wheat", "setting": "[12]; [29]", "value": 0}, {"measurement": "Plant response rating, Wild Oat", "setting": "[13]; [28]", "value": 0}, {"measurement": "Plant response rating, Wild Oat", "setting": "[13]; [29]", "value": 0}, {"measurement": "Plant response rating, Surinam grass", "setting": "[14]; [30]", "value": 0}, {"measurement": "Plant response rating, Surinam grass", "setting": "[14]; [31]", "value": 0}, {"measurement": "Plant response rating, Barnyardgrass", "setting": "[15]; [30]", "value": 0}, {"measurement": "Plant response rating, Barnyardgrass", "setting": "[15]; [31]", "value": 0}, {"measurement": "Plant response rating, Cocklebur", "setting": "[16]; [30]", "value": 0}, {"measurement": "Plant response rating, Cocklebur", "setting": "[16]; [31]", "value": 0}, {"measurement": "Plant response rating, Corn", "setting": "[17]; [30]", "value": 0}, {"measurement": "Plant response rating, Corn", "setting": "[17]; [31]", "value": 0}, {"measurement": "Plant response rating, Crabgrass", "setting": "[18]; [30]", "value": 0}, {"measurement": "Plant response rating, Crabgrass", "setting": "[18]; [31]", "value": 0}, {"measurement": "Plant response rating, Foxtail, Giant", "setting": "[19]; [30]", "value": 0}, {"measurement": "Plant response rating, Foxtail, Giant", "setting": "[19]; [31]", "value": 0}, {"measurement": "Plant response rating, Morningglory", "setting": "[20]; [30]", "value": 0}, {"measurement": "Plant response rating, Morningglory", "setting": "[20]; [31]", "value": 0}, {"measurement": "Plant response rating, Pigweed", "setting": "[21]; [30]", "value": 0}, {"measurement": "Plant response rating, Pigweed", "setting": "[21]; [31]", "value": 0}, {"measurement": "Plant response rating, Rice", "setting": "[22]; [30]", "value": 0}, {"measurement": "Plant response rating, Rice", "setting": "[22]; [31]", "value": 0}, {"measurement": "Plant response rating, Velvetleaf", "setting": "[23]; [30]", "value": 0}, {"measurement": "Plant response rating, Velvetleaf", "setting": "[23]; [31]", "value": 0}, {"measurement": "Plant response rating, Barnyardgrass", "setting": "[24]", "value": 0}, {"measurement": "Plant response rating, Ducksalad", "setting": "[25]", "value": 30}, {"measurement": "Plant response rating, Rice", "setting": "[26]", "value": 0}, {"measurement": "Plant response rating, Flatsedge", "setting": "[27]", "value": 20}]}
